Measurements: US4004008A, “O-Tertiary amino-alkyl-N-benzoyl tyrosil amides” (priority 1974, dated 1977)

Experiments:
[1] = tested on: rat; assay: Acute toxicity (DL50) i.v. in rat; type: in vivo; details: dose causing death in 50% of the animals
Procedure: (§1) In this table (n. 1) there are recorded the compounds described in the examples with their relative serial numbers, the acute toxicity, the antispastic activity observed in two experimental tests, one "in vivo" and one "in vitro". There are moreover recorded two therapeutic indices which take account of the toxicity of these compounds in relation to their in vivo and in vitro activity. More precisely:
(§2) A. DL50 which, as is known, is the quantity of the substance expressed in mg/kg of animal weight, capable of causing death in 50% of the animals treated.

[2] = tested on: intestinal transit of the charcoal; assay: Vegetable carbon (charcoal) intestinal transit test in vivo; design: species or system rat; details: i.v., rat, charcoal test, 2 hours; for ED50: Rattus norvegicus, iv, 2 h, read-out: Antisp. activity in transit test: ED50
Procedure: B. The vegetable carbon method in vivo (charcoal method) which consists of administering by oral means to rats, which have fasted for 24 hours, 0.3ml/per rate of a mixture consisting of: 10g of charcoal and 5 g of gum arabic suspended in a volume of 100 cc of H2 O as well as at the same time the substance being studied, accordingly as desired, generally i.v., s.c., oral. After two hours the animals are killed and those are taken to be negative in which the charcoal has reached the first portion of the colon and the others positive, in the sense that the substance administered has slowed down the intestinal transit of the charcoal.
In effect the animals treated with a physiological solution (checks) are all negative after two hours.
D. I.T.1 is the therapeutic index under the profile of the antispastic activity in vivo, and it is obtained by recording the DL50 (column 2) with the ED50 of the charcoal test (column 3).

[3] = tested on: ileum of a cavy (BaCl2 spasm); assay: Antispastic activity in vitro, Magnus method, cavy ileum stimulated with BaCl2; type: cell-based; details: ratio to papaverine = 1; Table 1; 37°
Procedure: C. The method in vitro is that of Magnus, with the ileum of the cavy, and is in common use for all evaluations. It consists of extracting the ileum from the cavy and placing it in a receptacle which contains nutritive liquid, suitably oxygenated, and registering the movements of the organ which remains alive for several hours if maintained at a temperature of 37°. According to the traditional method followed by us, BaCl2 is put into the bath as a spasmisant: the reaction is a violent contraction of the organ. This contraction can be prevented by adding beforehand pharmaceuticals which inhibit spasms, and in this case our compounds.
The values recorded are expressed as relation between papaverine and the ED50 of our compounds. (As is known, the ED50 is the dose which results in a 50% reduction in spastic contraction).
E. I.T.2 is the therapeutic index under the profile of the antispastic activity in vitro and is given by the product between the in vitro antispastic activity index (column 4) and the corresponding DL50 (column 2).

[4] = Acute toxicity (DL50) i.v. in rat; type: in vivo; details: in vivo, iv, dose causing death in 50% of the animals
Procedure: as §1, §2

Row | Compound | DL50 in a rat [1] [mg/kg] | Antisp. activity in transit test: ED50 ([2]; 120 min) [mg/kg] | Antisp. activity in vitro on the ileum of a cavy by Stim. BaCl2: ED50 pap./ED50 CR [3] | Antisp. activity in transit test: ED50 [2] | LD50 [4] [mg/kg] | ED50 [2] [mg/kg]
1 | CCCN(CCC)C(=O)C(Cc1ccc(OCCCN(C)C)cc1)NC(=O)c1ccccc1 (racemic) [CR 607, O-(3-dimethylamino-propyl)-N-benzoyl-DL-tyrosil-di-n-propylamide] | 32.4 | 26.7 | 0.41 | – | – | –
2 | CCCN(CCC)C(=O)C(Cc1ccc(OCCN(C)C)cc1)NC(=O)c1ccc(C)cc1 (racemic) [CR 615, O-(2-dimethylamino-ethyl)-N-toluoyl-DL-tyrosil-di-n-propylamide] | 48.1 | – | 0.69 | inactive | – | –
3 | CCCN(CCC)C(=O)C(Cc1ccc(OCCN2CCCC2)cc1)NC(=O)c1ccc(C)cc1 (racemic) [CR 650, O-(2-pyrrolidil-N'-ethyl)-N-toluoyl-DL-tyrosil-di-n-propylamide] | 17.5 | – | 1.17 | 18.4 mg/kg | – | –
4 | CCCCN(CCCC)C(=O)C(Cc1ccc(OCCCN2CCN(C)CC2)cc1)NC(=O)c1ccccc1Cl (racemic) [CR 731, O-[3-(N"-methyl-piperazine)-N'-propyl]-N-(o-chloro-benzoyl)-DL-tyrosil-di-n-butylamide] | 61 | – | 1.75 | 39.4 mg/kg | – | –
5 | CCN(CC)CCOc1ccc(CC(NC(=O)c2ccccc2)C(=O)N(CC)CC)cc1 (racemic) [CR 734, O-(2-diethylamino-ethyl)-N-benzoyl-DL-tyrosil-di-ethylamide] | – | – | 0.52 | – | 62.2 | 33.4
6 | CCN(CC)C(=O)C(Cc1ccc(OCCN2CCN(C)CC2)cc1)NC(=O)c1ccccc1 (racemic) [CR 736, O-[2-(N"-methyl-piperazine)-N'-ethyl]-N-benzoyl-DL-tyrosildiethylamide] | – | – | 0.04 | – | 102 | 39.6
7 | CCN(CC)CCOc1ccc(CC(NC(=O)c2ccccc2)C(=O)N(C)C)cc1 (racemic) [CR 738, O-(2-diethylamino-ethyl)-N-benzoyl-DL-tyrosil-di-methylamide] | – | – | 0.14 | – | 85.3 | 50.6
8 | CCN(CC)CCOc1ccc(CC(NC(=O)c2ccccc2)C(N)=O)cc1 (racemic) [CR 740, O-(2-dietylamino-ethyl)-N-benzoyl-DL-tyrosil-amide] | – | – | 0.36 | inactive | 102 | –
9 | CCCCNC(=O)C(Cc1ccc(OCCN(CC)CC)cc1)NC(=O)c1ccccc1 (racemic) [CR 786, O-(2-diethylamine-ethyl)-N-benzoyl-DL-tyrosil-n-butylamide] | – | – | 0.17 | – | 38 | 34.3
10 | CCCN(CCC)C(=O)C(Cc1ccc(OCCN(CC)CC)cc1)NC(=O)c1ccc(C)cc1 (racemic) [CR 807, O-(2-diethylamino-ethyl)-N-toluoyl-DL-tyrosil-di-n-propylamide] | 31.5 | – | 0.34 | 21 mg/kg | – | –
11 | CCCCNC(=O)C(Cc1ccc(OCCN2CCCC2)cc1)NC(=O)c1ccc(Cl)cc1 (racemic) [CR 812, O-(2'-pyrrolidil-N'-ethyl)-N-(p-chloro-benzoyl)-DL-tyrosil-n-butylamide] | – | – | 1.03 | – | 27 | 21
12 | CCCNC(=O)C(Cc1ccc(OCCN2CCCC2)cc1)NC(=O)c1ccccc1 (racemic) [CR 821, O-(2-pyrrolidil-N'-ethyl)-N-benzoyl-DL-tyrosil-n-propylamide] | – | – | 0.13 | – | 53 | 15.6
13 | CCCN(CCC)CCOc1ccc(CC(NC(=O)c2ccccc2)C(=O)N(CCC)CCC)cc1 (racemic) [CR 823, O-(2-di-n-propylamino-ethyl)-N-benzoyl-DL-tyrosil-di-n-propylamide] | – | – | 1.48 | – | 23 | 16.2
14 | CCCCCCNC(=O)C(Cc1ccc(OCCN2CCCC2)cc1)NC(=O)c1ccccc1 (racemic) [CR 825, O-(2-pyrrolidil-N'-ethyl)-N-benzoyl-DL-tyrosil-n-hexylamide] | – | – | 1.8 | – | 42 | 14.8
15 | CCCCCCNC(=O)C(Cc1ccc(OCCN2CCCC2)cc1)NC(=O)c1ccc(C)cc1 (racemic) [CR 826, 0-(2-pyrrolidil-N'-ethyl)-N-toluoyl-DL-tyrosil-n-hexylamide] | 41 | – | 1.2 | 17.0 mg/kg | – | –
16 | CCCN(CCC)C(=O)C(Cc1ccc(OCCN(CC)CC)cc1)NC(=O)OCc1ccccc1 (racemic) [CR 832, O-(2-diethylamino-ethyl)-N-carbobenzoxy-DL-tyrosil-di-n-propylamide] | – | – | 1.40 | – | 32.4 | 16.3
17 | CN(C)CCOc1ccc(C[C@H](NC(=O)OCc2ccccc2)C(=O)N2CCOCC2)cc1 [CR 606, O-(2-dimethylamino-ethyl)-N-carbobenzoxy-L-tyrosil-morpholylamide] | – | – | 0.19 | inactive | 128 | –
18 | CCNC(=O)C(Cc1ccc(OCCN(C)C)cc1)NC(=O)OCc1ccccc1 [CR 610, O-(2-dimethylamino-ethyl)-N-carbobenzoxy-L-tyrosil-ethylamide] | – | – | 0.13 | – | 139 | 58.1
19 | CN(C)CCOc1ccc(C[C@H](NC(=O)OCc2ccccc2)C(=O)NCc2ccccc2)cc1 [CR 612, O-(2-dimethylamino-ethyl)-N-carbobenzoxy-L-tyrosil-benzylamide] | – | – | 0.35 | – | 87.7 | 23
20 | CCCN(CCC)C(=O)C(Cc1ccc(OCCN(C)C)cc1)NC(=O)OCc1ccc([N+](=O)[O-])cc1 (centres unmarked) [CR 613] | – | – | 0.68 | – | 100 | 58.7
21 | CCCN(CCC)C(=O)C(Cc1ccc(OCCN(CC)CC)cc1)NC(=O)OCc1ccccc1 [CR 627, O-(2-diethylamino-ethyl)-N-carbobenzoxy-D-tyrosil-di-n-propylamide] | 34.0 | 20.8 | 1.44 | – | – | –
22 | CCCN(CCC)C(=O)C(Cc1ccc(OCCN(CC)CC)cc1)NC(=O)c1ccccc1 [CR 804, O-(2-diethylamino-ethyl)-N-benzoyl-L-tyrosil-di-n-propylamide] | – | – | 0.89 | – | 33.5 | 16.1
23 | CCCN(CCC)C(=O)C(Cc1ccc(OCCN(CC)CC)cc1)NC(=O)OCc1ccccc1 [CR 830, O-(2-diethylamino-ethyl)-N-carbobenzoxy-L-tyrosil-di-n-propylamide] | – | – | 1.49 | – | 31.5 | 17.3
24 | CCCN(CCC)C(=O)C(Cc1ccc(OCCN(CC)CC)cc1)NC(=O)c1ccc(Cl)cc1 [CR 831, O-(2-diethylamino-ethyl)-N-(p-chloro-benzoyl)-L-tyrosil-din-propylamide] | – | – | 1.30 | – | 35 | 24.4
25 | O-(2-diisopropylamino-ethyl)-N-toluoyl-DL-tyrosil-n-butylamide [CR 709] | 40 | – | – | 36.1 mg/kg | – | –
26 | O-(3-pyrrolidil-N'-propyl)-N-toluoyl-DL-tyrosil-n-butylamide [CR 797] | 20.6 | – | 1.32 | 12.0 mg/kg | – | –
